Results taken from patent US4218477A, “Primary aminoacylanilides, methods of making the same and use as antiarrhythmic drugs” (priority 1976, dated 1980).
Where two headings read alike, the source gives them in different places.

Experiments:
ventricular fibrillation = assay: Protection against chloroform induced ventricular fibrillation in mice, oral (Table I); assay type: in vivo, female Swiss albino mice (HAM/ICR)
Protocol: (§1) The experiments on mice were performed according to a modification of the method described by J. W. Lawson, "Antiarrhythmic activity of some isoquinoline derivatives determined by a rapid screening procedure in the mouse", J. Pharm. Exp. Therap. Vol. 160, pp. 22-31 (1968). This method is based upon the observation that when an unanesthetized, untreated mouse is exposed to chloroform vapor its respiration soon ceases and at that time both electrocardiographic and visual inspection reveal that the cardiac ventricles are fibrillating. If the mouse is treated appropriately with known antiarrhythmic agents prior to exposure to chloroform, the respiratory failure is not accompanied by ventricular fibrillation.

mice [1] = assay: Ataxia just before CHCl3 challenge in mice, oral (Table I); assay type: in vivo, female Swiss albino mice (HAM/ICR)
Protocol: as §1

ventricular arrhythmias [2] = assay type: in vivo, dogs; conditions: for Complete Clearing, Duration: return of 50% of suppressed abnormal beats; for Complete Clearing, Onset: abnormal ventricular beats less than 5% of total beats
Protocol: Vol. 1, pp. 1318-1328 (1950). […] The electrocardiographic, cardiovascular and other drug effects were monitored.
Table II summarizes the results of oral administration:
Dogs #215 and #220 given 50 mg/kg dose at 0 mins and 100 mg/kg dose at 24
The electrocardiographic, cardiovascular and other drug effects were monitored.

ventricular arrhythmias [3] = assay: animal or person; conditions: for minimal effective dose: Canis lupus familiaris
Protocol: Tests on dogs with the compound 2-amino-2',6'-propionoxylidide were conducted according to a modification of the method described by A. S. Harris in "Delayed Development of Ventricular Ectopic Rhythms Following Experimental Coronary Occlusions", Circ. Vol. 1, pp. 1318-1328 (1950). In this method the dogs were anesthetized, the heart was exposed, and the anterior descending branch of the left coronary artery was ligated in two stages. The thorax was closed and the dog was allowed to recover from the anesthesia. […] B. B. Clark and J. R. Cummings, "Arrhythmias Following Experimental Coronary Occlusion and Their Response to Drugs", Annals New York Academy of Sciences, Vol. 65, pp. 543-551 (1956). […] The electrocardiographic, cardiovascular and other drug effects were monitored.
The dosage schedule was: 1st hr.: 15 mg/kg/hr; 2nd hr.: 30 mg/kg/hr; 3rd hr.: 60 mg/kg/hr. Infusions were stopped at the first sign of toxicity other than emesis.
The compound 3-amino-2',6'-butyroxylidide was also tested on dogs, according to a modification of the method of Harris as previously described. As in the previously described tests, unanesthetized dogs were supported in canvas slings and were treated either intravenously or orally with doses of 3-amino-2',6'-butyroxylidide. The electrocardiographic, cardiovascular and other drug effects were monitored.

[4] = system: chloroform induced fibrillation; assay: Protection against chloroform induced fibrillation in mice, subcutaneous, potency relative to lidocaine (Table IV); assay type: in vivo; conditions: s.c., 20 min, statistical mean (confidence limits)
Protocol: as §1
The procedure used was a modification of the method previously described. The modification involved using a standard time of 20 minutes for each test run and four different doses of the same drug. Route of administration was subcutaneous.

frog sciatic nerve = assay: Local anesthetic effect in vitro on the frog sciatic nerve; conditions: 20 mM, exposure for 96 min
cardiac arrhythmias = assay: Antiarrhythmic effect in mice, oral (summary statement); assay type: in vivo
Protocol: as §1

mice [5] = conditions: mouse, in vivo, po, 1440 min
[6] = system: chloroform-induced arrhythmias; assay: animal or person; conditions: Mus musculus
[7] = Acute oral toxicity in mice (24 Hr. mortality); conditions: mouse, in vivo, po
[8] = oral, cumulative dose 100 mg/kg as HCl
[9] = oral, cumulative dose 300 mg/kg as HCl

Compound: Cc1cccc(C)c1NC(=O)C(C)N (racemic) [2-amino-2',6'-propionoxylidide]
- Proportion of mice protected against fibrillation at LD0.1 (ventricular fibrillation; dose LD0.1, drug given 20 min before CHCl3 challenge): 9/10
- Proportion of mice protected against fibrillation at LD0.1 (ventricular fibrillation; dose LD0.1, drug given 40 min before CHCl3 challenge): 9/10
- Proportion of mice protected against fibrillation at LD0.1 (ventricular fibrillation; dose LD0.1, drug given 80 min before CHCl3 challenge): 10/10
- Proportion of mice protected against fibrillation at LD0.1 (ventricular fibrillation; dose LD0.1, drug given 160 min before CHCl3 challenge): 9/10
- Proportion of mice having ataxia just before CHCl3 challenge (mice [1]; dose LD0.1, 20 min): 10/10
- Proportion of mice having ataxia just before CHCl3 challenge (mice [1]; dose LD0.1, 40 min): 10/10
- Proportion of mice having ataxia just before CHCl3 challenge (mice [1]; dose LD0.1, 80 min): 8/10
- Proportion of mice having ataxia just before CHCl3 challenge (mice [1]; dose LD0.1, 160 min): 5/10
- adverse reactions (ventricular arrhythmias [2]; dog, in vivo, po): unaccompanied by any discernible adverse reactions
- Overt Toxicity: Convulsions, Onset (ventricular arrhythmias [2]; dog, in vivo, po, 50 mg/kg): None
- Overt Toxicity: Emesis (ventricular arrhythmias [2]; dog, in vivo, po, 50 mg/kg): None
- Overt Toxicity: Nystagmus (ventricular arrhythmias [2]; dog, in vivo, po, 50 mg/kg): None
- Overt Toxicity: Other (ventricular arrhythmias [2]; dog, in vivo, po, 50 mg/kg): None
- Overt Toxicity: Tremors (ventricular arrhythmias [2]; dog, in vivo, po, 50 mg/kg): None
- Overt Toxicity: Convulsions, Onset (ventricular arrhythmias [2]; dog, in vivo, po, 100 mg/kg): None
- Overt Toxicity: Emesis (ventricular arrhythmias [2]; dog, in vivo, po, 100 mg/kg): None
- Overt Toxicity: Nystagmus (ventricular arrhythmias [2]; dog, in vivo, po, 100 mg/kg): None
- Overt Toxicity: Other (ventricular arrhythmias [2]; dog, in vivo, po, 100 mg/kg): None
- Overt Toxicity: Tremors (ventricular arrhythmias [2]; dog, in vivo, po, 100 mg/kg): None
- Overt Toxicity: Convulsions, Onset (ventricular arrhythmias [2]; dog, in vivo, po, 150 mg/kg): None
- Overt Toxicity: Nystagmus (ventricular arrhythmias [2]; dog, in vivo, po, 150 mg/kg): None
- Overt Toxicity: Other (ventricular arrhythmias [2]; dog, in vivo, po, 150 mg/kg): None
- Overt Toxicity: Tremors (ventricular arrhythmias [2]; dog, in vivo, po, 150 mg/kg): None
- Overt Toxicity: Convulsions, Duration (ventricular arrhythmias [2]; dog, in vivo, po, 200 mg/kg): > 3 min
- Overt Toxicity: Nystagmus (ventricular arrhythmias [2]; dog, in vivo, po, 200 mg/kg): None
- Overt Toxicity: Other (ventricular arrhythmias [2]; dog, in vivo, po, 200 mg/kg): None
- Overt Toxicity: Convulsions, Duration (ventricular arrhythmias [2]; dog, in vivo, po, 300 mg/kg): 17 min
- Overt Toxicity: Convulsions, Onset (ventricular arrhythmias [2]; dog, in vivo, po, 300 mg/kg): None
- Overt Toxicity: Emesis (ventricular arrhythmias [2]; dog, in vivo, po, 300 mg/kg): None
- Overt Toxicity: Nystagmus (ventricular arrhythmias [2]; dog, in vivo, po, 300 mg/kg): None
- Overt Toxicity: Other (ventricular arrhythmias [2]; dog, in vivo, po, 300 mg/kg): None
- Overt Toxicity: Tremors (ventricular arrhythmias [2]; dog, in vivo, po, 300 mg/kg): None
- suppression of the ventricular arrhythmias (ventricular arrhythmias [2]; oral doses, dogs): distinct suppression of the ventricular arrhythmias
- Partial Clearing, Onset (ventricular arrhythmias [2]; oral, cumulative dose 50 mg/kg as HCl, 50-95% reduction of abnormal ventricular beats): None
- Complete Clearing, Duration (ventricular arrhythmias [2]; oral, cumulative dose 50 mg/kg as HCl, *** followed by off and on bursts): 195 min
- Complete Clearing, Onset (ventricular arrhythmias [2]; [8]): 120 min
- Complete Clearing, Duration (ventricular arrhythmias [2]; [8]): 45 min
- Complete Clearing, Duration (ventricular arrhythmias [2]; oral, cumulative dose 200 mg/kg as HCl, *** followed by off and on bursts): 30 min
- Complete Clearing, Onset (ventricular arrhythmias [2]; [9]): 30 min
- Complete Clearing, Duration (ventricular arrhythmias [2]; [9]): > 180 min
- minimal effective dose (ventricular arrhythmias [3]; iv, read-out: Antiarrhythmic doses (cumul.)): 75 mg/kg
- minimal effective dose (ventricular arrhythmias [3]; iv, read-out: cumulative dose providing antiarrhythmic effects): 75 mg/kg
- adverse reactions (ventricular arrhythmias [3]; dog, in vivo, iv): unaccompanied by any discernible adverse reactions
- Number of dogs showing antiarrhythmic effect (ventricular arrhythmias [3]; i.v. infusion 15, 30, 60 mg/kg/hr, dogs tested: lidocaine 2, test compound 1, abnormal beats less than 5% of total): 1
- Toxic doses (cumul.) (ventricular arrhythmias [3]; i.v. infusion, stopped at first sign of toxicity other than emesis, one value per dog): 81 mg/kg
- Duration of Antiarrhythmic effect (ventricular arrhythmias [3]; i.v. infusion, return of 50% of suppressed abnormal ventricular beats, one value per dog): 71 min
- suppression of the ventricular arrhythmias (ventricular arrhythmias [3]; intravenous doses, dogs): distinct suppression of the ventricular arrhythmias
- Relative Potency (ED50 test compound/ED50 lidocaine) [4]: 0.33 (0.20 - 0.54)
- block of the action potential of the nerve (frog sciatic nerve): does not block the action potential at all
- maximum oral dosage providing antiarrhythmic effects (cardiac arrhythmias): about 380 mg/kg
- 24 Hr. Mortality LD0.1 (mice [5]): 382 mg/kg
- ED50 [6]: 172 mg/kg
- LD50 at 24 h [7]: 529 mg/kg
